Measurements reported in patent US8420657B2 (Novartis AG, priority 2008, dated 2013).

Tests used:
GST-JAK2(808-1132) = biological target: T1, GST-JAK2(808-1132) (Homo sapiens, UniProt O60674); assay: JAK2 kinase assay (Caliper mobility shift, LabChip 3000); assay type: biochemical
T1 construct: GST-JAK2(808-1132); purchased Invitrogen (Carlsbad, USA) #4288
Summary of the method: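 Recombinant GST-JAK2(808-1132) kinase domain with FITC-labelled JAK3tide peptide substrate and ATP; 60 min at 30 °C, EDTA stop. Substrate/product ratio read by microfluidic mobility shift; compounds at 8 final concentrations, 10 to 0.003 μM.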

[1] = system: JAK1/JAK2-dependent nuclear translocation of STAT1-GFP in HT1080 fibrosarcoma cells; assay: STAT1 nuclear translocation assay (Cellomics), IFN-γ stimulated HT1080 STAT1-GFP cells; assay type: cell-based; conditions: Homo sapiens, HT-1080, STAT1 translocation pathway
Summary of the method: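 HT1080 cells stably expressing STAT1-GFP, pre-treated 30 min with compound (10 μM–0.003 μM, 0.1% DMSO), then stimulated 2 h with 100 ng/ml IFN-γ, fixed and Hoechst-stained. Nuclear-cytoplasmic GFP differential imaged over ≥1000 cells/well, normalised to unstimulated and DMSO-stimulated wells for IC50.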

T1 sequence (O60674 808-1132): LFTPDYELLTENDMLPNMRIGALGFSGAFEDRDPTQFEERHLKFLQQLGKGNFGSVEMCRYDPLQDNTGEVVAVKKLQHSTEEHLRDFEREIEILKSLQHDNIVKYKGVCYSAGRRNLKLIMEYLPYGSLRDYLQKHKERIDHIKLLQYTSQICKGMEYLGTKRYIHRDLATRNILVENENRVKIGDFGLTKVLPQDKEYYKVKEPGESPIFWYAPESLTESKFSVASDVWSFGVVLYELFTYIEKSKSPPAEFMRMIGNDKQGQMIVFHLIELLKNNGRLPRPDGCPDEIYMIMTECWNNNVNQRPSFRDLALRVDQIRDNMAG

| IC50 (GST-JAK2(808-1132)) [nM] | IC50 [1] [nM] | Structure (SMILES) |
| --- | --- | --- |
| 30.5 | 3900 | CCOc1ccc(Nc2ncc3cc(C)n(-c4ccc(CN5CCOCC5)c(F)c4)c3n2)cc1OCC [Example 168, (3,4-Diethoxy-phenyl)-[7-(3-fluoro-4-morpholin-4-ylmethyl-phenyl)-6-methyl-7H-pyrrolo[2,3-d]pyrimidin-2-yl]-amine] |
| 4.3 | 93 | Cc1ccc(Nc2ncc3ccn(-c4ccc(C(=O)N5CCOCC5)cc4)c3n2)cc1C [Example 169, {4-[2-(3,4-Dimethyl-phenylamino)-pyrrolo[2,3-d]pyrimidin-7-yl]-phenyl}-morpholin-4-yl-methanone] |
| 17 | 374 | Cc1ccc(Nc2ncc3ccn(-c4ccc(C(=O)N5CCN(C)CC5)cc4)c3n2)cc1C [Example 170, {4-[2-(3,4-Dimethyl-phenylamino)-pyrrolo[2,3-d]pyrimidin-7-y]-phenyl}-(4-methyl-piperazin-1-yl)-methanone] |
| < 3 | 260 | CCN1CCN(C(=O)c2ccc(Nc3ncc4ccn(-c5cc(F)c(CN6CCOCC6)c(F)c5)c4n3)cc2)CC1 [Example 171, {4-[7-(3,5-Difluoro-4-morpholin-4-ylmethyl-phenyl)-7H-pyrrolo[2,3-d]pyrimidin-2-ylamino]-phenyl}-(4-ethyl-piperazin-1-yl)-methanone] |
| 5.5 | 235 | CN1CCN(Cc2ccc(Nc3ncc4ccn(-c5cc(F)c(CN6CCOCC6)c(F)c5)c4n3)cc2)CC1 [Example 173, [7-(3,5-Difluoro-4-morpholin-4-ylmethyl-phenyl)-7H-pyrrolo[2,3-d]pyrimidin-2-yl]-[4-(4-methyl-piperazin-1-ylmethyl)-phenyl]-amine] |
| < 3 | 150 | CN1CCN(c2cccc(Nc3ncc4ccn(-c5cc(F)c(CN6CCOCC6)c(F)c5)c4n3)c2)CC1 [Example 174, [7-(3,5-Difluoro-4-morpholin-4-ylmethyl-phenyl)-7H-pyrrolo[2,3-d]pyrimidin-2-yl]-[3-(4-methyl-piperazin-1-yl)-phenyl]-amine] |
| < 3 | 275 | O=C(c1ccc(Nc2ncc3ccn(-c4ccc(CN5CCOCC5)c(Cl)c4)c3n2)cc1)N1CCOCC1 [Example 175, {4-[7-(3-Chloro-4-morpholin-4-ylmethyl-phenyl)-7H-pyrrolo[2,3-d]pyrimidin-2-ylamino]-phenyl}-morpholin-4-yl-methanone] |
| 7.3 | 1550 | COCc1ccc(Nc2ncc3ccn(-c4ccc(CN5CCOCC5)c(Cl)c4)c3n2)cc1 [Example 176, [7-(3-Chloro-4-morpholin-4-yl methyl-phenyl)-7H-pyrrolo[2,3-d]pyrimidin-2-yl]-(4-methoxymethyl-phenyl)-amine] |
| 5.3 | 1040 | CCOc1ccc(Nc2ncc3ccn(-c4ccc(CN5CCOCC5)c(Cl)c4)c3n2)cc1OCC [Example 177, [7-(3-Chloro-4-morpholin-4-ylmethyl-phenyl)-7H-pyrrolo[2,3-d]pyrimidin-2-yl]-(3,4-diethoxy-phenyl)-amine] |
| 9.1 | 790 | O=C(c1ccc(Nc2ncc3ccn(-c4cc(F)c(CN5CCCC5)c(F)c4)c3n2)cc1)N1CCOCC1 [Example 178, {4-[7-(3,5-Difluoro-4-pyrrolidin-1-ylmethyl-phenyl)-7H-pyrrolo[2,3-d]pyrimidin-2-ylamino]-phenyl}-morpholin-4-yl-methanone] |
| 10.4 | 1520 | COCc1ccc(Nc2ncc3ccn(-c4cc(F)c(CN5CCCC5)c(F)c4)c3n2)cc1 [Example 179, [7-(3,5-Difluoro-4-pyrrolidin-1-ylmethyl-phenyl)-7H-pyrrolo[2,3-d]pyrimidin-2-yl]-(4-methoxymethyl-phenyl)-amine] |
| < 3 | 120 | O=S1(=O)CCN(Cc2c(F)cc(-n3ccc4cnc(Nc5ccccc5)nc43)cc2F)CC1 [Example 180, {7-[4-(1,1-Dioxido-thiomorpholin-4-ylmethyl)-3,5-difluoro-phenyl]-7H-pyrrolo[2,3-d]pyrimidin-2-yl}-phenyl-amine] |
| 15.5 | 16600 | O=S1(=O)CCN(Cc2c(F)cc(-n3ccc4cnc(Nc5ccccn5)nc43)cc2F)CC1 [Example 181, {7-[4-(1,1-Dioxido-thiomorpholin-4-ylmethyl)-3,5-difluoro-phenyl]-7H-pyrrolo[2,3-d]pyrimidin-2-yl}-pyridin-2-yl-amine] |
| < 3 | 125 | O=S1(=O)CCN(Cc2c(F)cc(-n3ccc4cnc(Nc5cccnc5)nc43)cc2F)CC1 [Example 182, {7-[4-(1,1-Dioxido-thiomorpholin-4-ylmethyl)-3,5-difluoro-phenyl]-7H-pyrrolo[2,3-d]pyrimidin-2-yl}-pyridin-3-yl-amine] |
| 3.3 | 95 | O=S1(=O)CCN(Cc2c(F)cc(-n3ccc4cnc(Nc5ccncc5)nc43)cc2F)CC1 [Example 183, {7-[4-(1,1-Dioxido-thiomorpholin-4-ylmethyl)-3,5-difluoro-phenyl]-7H-pyrrolo[2,3-d]pyrimidin-2-yl}-pyridin-4-yl-amine] |
| < 3 | 290 | N#Cc1ccc(Nc2ncc3ccn(-c4cc(F)c(CN5CCS(=O)(=O)CC5)c(F)c4)c3n2)cc1 [Example 185, 4-{7-[4-(1,1-Dioxido-thiomorpholin-4-ylmethyl)-3,5-difluoro-phenyl]-7H-pyrrolo[2,3-d]pyrimidin-2-ylamino}-benzonitrile] |
| < 3 | 95 | CN1CCN(C(=O)c2ccc(Nc3ncc4ccn(-c5cc(F)c(CN6CCS(=O)(=O)CC6)c(F)c5)c4n3)cc2C(F)(F)F)CC1 [Example 186, (4-{7-[4-(1,1-Dioxido-thiomorpholin-4-ylmethyl)-3,5-difluoro-phenyl]-7H-pyrrolo[2,3-d]pyrimidin-2-ylamino}-2-trifluoromethyl-phenyl)-(4-methyl-piperazin-1-yl)-methanone] |
| < 3 | 55 | O=C(c1ccc(Nc2ncc3ccn(-c4cc(F)c(CN5CCS(=O)(=O)CC5)c(F)c4)c3n2)cc1)N1CCOCC1 [Example 187, (4-{7-[4-(1,1-Dioxido-thiomorpholin-4-ylmethyl)-3,5-difluoro-phenyl]-7H-pyrrolo[2,3-d]pyrimidin-2-ylamino}-phenyl)-morpholin-4-yl-methanone] |
| < 3 | 60 | CCN1CCN(Cc2ccc(Nc3ncc4ccn(-c5cc(F)c(CN6CCS(=O)(=O)CC6)c(F)c5)c4n3)cc2)CC1 [Example 188, {7-[4-(1,1-Dioxido-thiomorpholin-4-ylmethyl)-3,5-difluoro-phenyl]-7H-pyrrolo[2,3-d]pyrimidin-2-yl}-[4-(4-ethyl-piperazin-1-ylmethyl)-phenyl]-amine] |
| 9.5 | 846 | COCc1ccc(Nc2ncc3ccn(-c4cc(F)c(C(=O)N5CCN(C)CC5)c(F)c4)c3n2)cc1 [Example 189, {2,6-Difluoro-4-[2-(4-methoxymethyl-phenylamino)-pyrrolo[2,3-d]pyrimidin-7-yl]-phenyl}-(4-methyl-piperazin-1-yl)-methanone] |

| Structure (SMILES) | IC50 (GST-JAK2(808-1132)) [nM] | IC50 [1] [nM] |
| --- | --- | --- |
| CCN1CCN(C(=O)Cc2cccc(Nc3ncc4ccn(-c5cc(F)c(CN6CCOCC6)c(F)c5)c4n3)c2)CC1 [Example 172, 2-{3-[7-(3,5-Difluoro-4-morpholin-4-ylmethyl-phenyl)-7H-pyrrolo[2,3-d]pyrimidin-2-ylamino]-phenyl}-1-(4-ethyl-piperazin-1-yl)-ethanone] | < 3 | 220 |
